Data published in doi:10.1101/2024.01.03.574093v2 (biorxiv, 2024).
Where two headings read alike, the source gives them in different places. *1 amine or outer side, *2 acyl side, *3 side chain or, on linkers, in order; H or OH if unused. Where a SMILES comes first, the peptide text is derived from it. [ ]: non-standard residue; d: D form. The star is where a group is joined. X1 = Cc1nc(N[*:1])sc1-c1cc(C(=O)[*:2])n[nH]1; Bz = O=C(c1ccccc1)*

What was measured:
Experiment in all cases: cell-based
JHR (GCE:TAI) [1] = molecular target: T1, JHR (GCE:TAI) (Drosophila melanogaster, UniProt Q9VXW7); details: Drosophila Kc167, read-out: JHR Efficacy [%]
human AHR [2] = molecular target: T2, human AHR (Homo sapiens, UniProt P35869); parameters: species or system HepG2 (AZ-AHR); details: HepG2, read-out: AHR Efficacy [%], AGO
JHR (GCE:TAI) [3] = molecular target: T1, JHR (GCE:TAI); details: Drosophila Kc167, read-out: JHR Efficacy [%]; remark: listed apart in the source
human AHR [4] = molecular target: T2, human AHR; parameters: species or system HepG2 (AZ-AHR); details: HepG2, read-out: AHR Efficacy [%]

T1 sequence (Q9VXW7 1-959): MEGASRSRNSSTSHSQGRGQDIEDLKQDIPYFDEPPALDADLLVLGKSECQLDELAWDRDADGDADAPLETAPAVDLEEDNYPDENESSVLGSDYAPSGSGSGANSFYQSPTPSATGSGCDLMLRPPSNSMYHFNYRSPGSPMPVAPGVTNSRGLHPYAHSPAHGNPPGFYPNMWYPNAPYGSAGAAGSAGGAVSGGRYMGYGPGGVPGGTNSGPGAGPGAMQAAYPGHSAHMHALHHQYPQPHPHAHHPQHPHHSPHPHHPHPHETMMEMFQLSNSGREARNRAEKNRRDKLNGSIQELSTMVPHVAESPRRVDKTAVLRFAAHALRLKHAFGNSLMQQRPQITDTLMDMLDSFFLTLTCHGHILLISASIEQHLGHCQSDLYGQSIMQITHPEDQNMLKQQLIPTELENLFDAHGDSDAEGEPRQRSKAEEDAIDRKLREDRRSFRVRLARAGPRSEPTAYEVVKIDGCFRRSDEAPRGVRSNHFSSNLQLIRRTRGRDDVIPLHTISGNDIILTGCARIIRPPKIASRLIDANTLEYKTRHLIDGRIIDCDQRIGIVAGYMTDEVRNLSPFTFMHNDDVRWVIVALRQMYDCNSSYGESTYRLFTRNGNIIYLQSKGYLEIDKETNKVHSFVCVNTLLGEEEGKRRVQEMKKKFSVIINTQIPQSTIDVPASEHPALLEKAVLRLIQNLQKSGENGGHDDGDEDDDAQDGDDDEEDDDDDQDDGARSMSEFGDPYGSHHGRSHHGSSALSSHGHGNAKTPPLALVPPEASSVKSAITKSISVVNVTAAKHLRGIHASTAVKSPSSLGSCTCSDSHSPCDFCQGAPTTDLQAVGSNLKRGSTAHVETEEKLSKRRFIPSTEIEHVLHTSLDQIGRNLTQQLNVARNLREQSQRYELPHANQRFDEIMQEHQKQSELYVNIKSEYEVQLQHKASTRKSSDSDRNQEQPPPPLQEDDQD
T1 sequence (Q9VLD9 1-2026 partner): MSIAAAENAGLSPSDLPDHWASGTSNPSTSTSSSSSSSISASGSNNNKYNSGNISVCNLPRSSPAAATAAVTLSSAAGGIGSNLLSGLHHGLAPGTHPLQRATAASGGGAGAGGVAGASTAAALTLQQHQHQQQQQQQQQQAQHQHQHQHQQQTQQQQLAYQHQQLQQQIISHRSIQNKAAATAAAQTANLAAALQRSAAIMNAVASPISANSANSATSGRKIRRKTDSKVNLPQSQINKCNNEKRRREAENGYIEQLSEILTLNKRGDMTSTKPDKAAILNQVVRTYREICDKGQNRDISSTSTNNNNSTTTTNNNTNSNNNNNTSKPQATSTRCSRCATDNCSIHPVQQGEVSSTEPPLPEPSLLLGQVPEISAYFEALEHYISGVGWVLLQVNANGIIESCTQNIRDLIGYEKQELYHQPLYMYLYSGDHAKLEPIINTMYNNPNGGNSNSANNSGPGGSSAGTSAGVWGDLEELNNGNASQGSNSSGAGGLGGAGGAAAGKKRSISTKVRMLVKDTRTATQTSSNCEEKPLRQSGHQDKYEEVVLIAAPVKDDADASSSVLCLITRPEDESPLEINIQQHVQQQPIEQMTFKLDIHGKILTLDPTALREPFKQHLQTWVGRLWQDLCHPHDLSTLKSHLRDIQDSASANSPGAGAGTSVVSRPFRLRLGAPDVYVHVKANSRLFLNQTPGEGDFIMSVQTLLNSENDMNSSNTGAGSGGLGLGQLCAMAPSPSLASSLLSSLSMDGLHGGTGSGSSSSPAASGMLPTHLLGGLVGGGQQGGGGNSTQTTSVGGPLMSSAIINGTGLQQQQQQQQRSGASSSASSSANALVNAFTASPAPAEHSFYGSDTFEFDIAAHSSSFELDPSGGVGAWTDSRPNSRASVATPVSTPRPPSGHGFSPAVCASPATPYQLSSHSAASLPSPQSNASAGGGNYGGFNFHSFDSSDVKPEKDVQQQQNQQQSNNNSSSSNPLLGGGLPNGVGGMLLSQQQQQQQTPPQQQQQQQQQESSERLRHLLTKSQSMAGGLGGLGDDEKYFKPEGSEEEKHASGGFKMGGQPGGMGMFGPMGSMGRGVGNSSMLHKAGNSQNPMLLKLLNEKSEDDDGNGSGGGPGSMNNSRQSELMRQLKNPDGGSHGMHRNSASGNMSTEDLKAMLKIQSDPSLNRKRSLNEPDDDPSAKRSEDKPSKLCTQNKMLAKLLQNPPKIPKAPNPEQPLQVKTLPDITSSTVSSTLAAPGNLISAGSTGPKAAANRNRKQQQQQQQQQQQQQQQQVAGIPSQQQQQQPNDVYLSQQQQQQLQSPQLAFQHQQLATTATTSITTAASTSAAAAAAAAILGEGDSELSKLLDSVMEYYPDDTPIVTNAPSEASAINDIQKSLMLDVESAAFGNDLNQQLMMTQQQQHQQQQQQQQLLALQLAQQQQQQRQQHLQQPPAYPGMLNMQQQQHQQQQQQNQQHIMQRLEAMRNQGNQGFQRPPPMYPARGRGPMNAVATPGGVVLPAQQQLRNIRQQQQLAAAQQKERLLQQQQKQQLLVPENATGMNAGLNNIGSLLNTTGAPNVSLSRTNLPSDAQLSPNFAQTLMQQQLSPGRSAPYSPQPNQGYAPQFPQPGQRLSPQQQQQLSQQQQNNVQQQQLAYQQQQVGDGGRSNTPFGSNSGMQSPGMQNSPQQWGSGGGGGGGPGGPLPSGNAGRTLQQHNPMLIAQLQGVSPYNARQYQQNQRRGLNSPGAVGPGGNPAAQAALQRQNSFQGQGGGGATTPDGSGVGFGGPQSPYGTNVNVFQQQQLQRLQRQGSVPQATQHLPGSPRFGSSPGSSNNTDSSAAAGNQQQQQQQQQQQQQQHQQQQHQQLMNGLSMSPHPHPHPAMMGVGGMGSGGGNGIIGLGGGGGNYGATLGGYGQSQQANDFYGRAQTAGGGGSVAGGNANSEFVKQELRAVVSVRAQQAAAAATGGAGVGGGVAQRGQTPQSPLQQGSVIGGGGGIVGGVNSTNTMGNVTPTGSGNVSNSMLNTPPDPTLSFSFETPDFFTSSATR
T2 sequence (P35869 11-848): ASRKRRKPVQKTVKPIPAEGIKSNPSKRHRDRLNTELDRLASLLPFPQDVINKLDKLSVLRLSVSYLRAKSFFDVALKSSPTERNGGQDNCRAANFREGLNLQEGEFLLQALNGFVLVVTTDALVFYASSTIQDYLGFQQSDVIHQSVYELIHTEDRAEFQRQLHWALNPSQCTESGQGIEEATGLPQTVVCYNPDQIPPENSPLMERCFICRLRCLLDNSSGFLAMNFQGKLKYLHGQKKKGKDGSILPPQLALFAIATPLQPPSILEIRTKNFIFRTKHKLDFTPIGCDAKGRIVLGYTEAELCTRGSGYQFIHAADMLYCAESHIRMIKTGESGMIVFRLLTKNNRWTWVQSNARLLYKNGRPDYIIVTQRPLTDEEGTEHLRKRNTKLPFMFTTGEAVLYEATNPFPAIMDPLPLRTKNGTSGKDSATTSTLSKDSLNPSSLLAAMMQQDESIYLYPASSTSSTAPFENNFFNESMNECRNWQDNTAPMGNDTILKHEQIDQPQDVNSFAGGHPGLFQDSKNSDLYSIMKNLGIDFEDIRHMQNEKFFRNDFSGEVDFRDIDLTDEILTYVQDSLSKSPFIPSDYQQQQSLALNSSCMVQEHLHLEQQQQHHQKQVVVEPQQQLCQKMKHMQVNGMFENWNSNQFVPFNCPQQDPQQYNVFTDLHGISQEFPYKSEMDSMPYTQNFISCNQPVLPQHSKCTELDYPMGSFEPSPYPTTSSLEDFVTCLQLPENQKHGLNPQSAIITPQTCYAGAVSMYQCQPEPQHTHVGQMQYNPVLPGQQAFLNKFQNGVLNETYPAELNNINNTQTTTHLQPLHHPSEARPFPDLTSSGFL
T2 sequence (P27540 2-789 partner): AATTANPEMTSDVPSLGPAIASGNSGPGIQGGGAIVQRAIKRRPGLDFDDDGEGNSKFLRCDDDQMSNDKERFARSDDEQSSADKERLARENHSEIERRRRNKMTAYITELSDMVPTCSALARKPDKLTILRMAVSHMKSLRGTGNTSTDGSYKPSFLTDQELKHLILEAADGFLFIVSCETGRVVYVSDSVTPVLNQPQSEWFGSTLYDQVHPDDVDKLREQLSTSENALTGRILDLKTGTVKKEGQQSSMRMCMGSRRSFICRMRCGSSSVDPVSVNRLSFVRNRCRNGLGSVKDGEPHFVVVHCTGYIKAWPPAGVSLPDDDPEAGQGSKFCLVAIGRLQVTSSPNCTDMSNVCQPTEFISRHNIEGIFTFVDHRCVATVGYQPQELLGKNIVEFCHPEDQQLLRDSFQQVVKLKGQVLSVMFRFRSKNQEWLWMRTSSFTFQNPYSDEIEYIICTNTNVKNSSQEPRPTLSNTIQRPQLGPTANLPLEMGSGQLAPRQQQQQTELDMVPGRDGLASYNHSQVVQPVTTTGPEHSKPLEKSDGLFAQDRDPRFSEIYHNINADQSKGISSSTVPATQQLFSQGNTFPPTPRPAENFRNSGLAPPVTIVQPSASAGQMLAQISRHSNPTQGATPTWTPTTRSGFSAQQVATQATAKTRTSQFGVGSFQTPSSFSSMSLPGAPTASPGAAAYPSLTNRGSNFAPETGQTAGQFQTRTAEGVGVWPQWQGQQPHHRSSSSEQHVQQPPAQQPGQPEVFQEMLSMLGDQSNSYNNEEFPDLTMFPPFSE

For Cc1nc(NC(=O)c2ccccc2)sc1-c1cc(C(=O)NCC(=O)N[C@H](CCCN=C(N)N)C(=O)NCC(=O)N[C@H](CC(=O)O)C(=O)N[C@H](CC(=O)O)C(=O)N[C@H](CC(=O)O)C(N)=O)n[nH]1 [cmpd 2.1] (Bz-[X1]G[dR]G[dD][dD][dD]-NH2), the Emax (JHR (GCE:TAI) [1]) was 143% and the Emax (human AHR [2]) was 52%.
In the case of Cc1c(C(=O)Nc2ccc3ncccc3c2)sc2ccccc12 [2.7, cmpd 2.7], the Emax (JHR (GCE:TAI) [1]) was 85%.
With O=C(Nc1ccc(-c2nccs2)cc1)c1ccccc1C(F)(F)F [cmpd 2.3] the Emax (JHR (GCE:TAI) [3]) was 88%.
Compound Cc1nc(-c2ccsc2)sc1C(=O)Nc1cnn(C)c1 [cmpd 1.1] has an Emax (JHR (GCE:TAI) [1]) of 183% and an Emax (human AHR [2]) of 19%.
CC(COc1ccc(Oc2ccccc2)cc1)Oc1ccccn1 (stereo not shown) [pyriproxyfen] gave an Emax (JHR (GCE:TAI) [3]) of 62%.
Cc1c(C(=O)NCCc2cccnc2)oc2ccc(F)cc12 [cmpd 2.8] was tested, and the Emax (human AHR [4]) was 87% and the Emax (JHR (GCE:TAI) [3]) was 126%.
Work on CN(C(=O)CN1CCOC(c2nccs2)C1)c1nccs1 (stereo not shown) [cmpd 1.4] yielded an Emax (JHR (GCE:TAI) [1]) of 266%.
CC(NC(=O)CSCc1ccccc1)c1ccc(-n2ccnc2)cc1 (stereo not shown) [cmpd 2.12] was tested, and the Emax (human AHR [4]) was 45% and the Emax (JHR (GCE:TAI) [3]) was 109%.
Compound Cc1csc(CCNC(=O)c2cnc(-c3ccccc3)nc2)n1 [cmpd 2.10] has an Emax (human AHR [4]) of 30% and an Emax (JHR (GCE:TAI) [3]) of 128%.
Work on CC(Sc1nccn1C)C(=O)Nc1nc(-c2ccccc2)cs1 (stereo not shown) [cmpd 2.2] yielded an Emax (human AHR [4]) of 103% and an Emax (JHR (GCE:TAI) [3]) of 110%.
Work on OC(COc1ccc2cc(Br)ccc2c1)Cn1cccn1 (stereo not shown) [cmpd 2.9] yielded an Emax (human AHR [4]) of 19% and an Emax (JHR (GCE:TAI) [3]) of 70%.
Compound CC(C)c1c(C(=O)NCC2CCCO2)nnn1-c1ccc(Br)cc1 (stereo not shown) [cmpd 1.3] has an Emax (JHR (GCE:TAI) [1]) of 254%.
O=C(NCCCn1cccn1)c1ccc(C2CCCCC2)cc1 [cmpd 2.6] showed an Emax (human AHR [4]) of 14% and an Emax (JHR (GCE:TAI) [3]) of 76%.
For O=C(CCSc1nnc2ccccn12)NC(=O)NCc1ccccc1 [cmpd 1.2], the Emax (JHR (GCE:TAI) [3]) was 83%.
